Our source for the Activity values is ChEMBL document CHEMBL3046383, “Enantioselective Herbicidal Activity of Chiral α-Methylbenzylphenylureas against Cyperaceae and Echinochloa Paddy Weeds” (Biosci Biotechnol Biochem, 1998).

SMILES strings stand for the structures. Active and inactive are the calls of the source. How the calls were made is not given here.

Series [1] deals with Schoenoplectiella juncoides. The series can be described thus: Herbicidal activity against Schoenoplectiella juncoides var. Hotarui Ohwi assessed as phytotoxic activity ratings (0- no effect to 5-complete killing rating scale) at 100 g/a measured after 3 weeks post compound treatment under green house conditions. Type of series: functional.
The test system of series [2] is Oryza sativa. The series can be described thus: Phytotoxicity against transplanted Oryza sativa (rice) seedlings assessed as phytotoxic activity ratings (0- no effect to 5-complete killing rating scale) at 100 g/a measured after 3 weeks post compound treatment under green house conditions. Type of series: organism-based. As to conditions: in vivo, 504 h.
The test system of series [3] is Echinochloa oryzicola. The series can be described thus: Herbicidal activity against Echinochloa oryzicola assessed as phytotoxic activity ratings (0- no effect to 5-complete killing rating scale) at 100 g/a measured after 3 weeks post compound treatment under green house conditions. Type of series: functional.
Series [4] has as its system Cyperus difformis. Briefly: Herbicidal activity against Cyperus difformis assessed as phytotoxic activity ratings (0- no effect to 5-complete killing rating scale) at 100 g/a measured after 3 weeks post compound treatment under green house conditions. In kind it is functional.
Series [5] deals with Oryza sativa. The series can be described thus: Phytotoxicity against directly seeded Oryza sativa (rice) seedlings assessed as phytotoxic activity ratings (0- no effect to 5-complete killing rating scale) at 100 g/a measured after 3 weeks post compound treatment under green house conditions. Type of series: organism-based. To be noted: in vivo, 504 h.
Series [6] deals with Cyperus serotinus. The series can be described thus: Herbicidal activity against Cyperus serotinus assessed as phytotoxic activity ratings (0- no effect to 5-complete killing rating scale) at 3.1 to 100 g/a measured after 3 weeks post compound treatment under green house conditions. In kind it is functional.

`CCOC(=O)c1ccc(NC(=O)N[C@H](C)c2ccccc2)cc1`: the Activity in series [1], in series [2], in series [3], in series [4] and in series [5] was 0% in each case. The result in series [6] was inactive.
`CC(=O)c1ccc(NC(=O)N[C@H](C)c2ccccc2)cc1`: the Activity is 0% in series [1]; 0% in series [2]; 40% in series [3]; 0% in series [4]; 0% in series [5]. Moreover, the outcome in series [6] was inactive.
With `C[C@H](NC(=O)Nc1ccccc1Br)c1ccccc1`, the Activity is listed as 0% in series [1]; 0% in series [2]; 0% in series [3]; 10% in series [4]; 0% in series [5]. For the same compound, the outcome in series [6] was inactive.
For `CCCCCc1ccc(NC(=O)N[C@@H](C)c2ccccc2)cc1`, the Activity in series [1], in series [2], in series [3], in series [4] and in series [5] was 0% throughout. Moreover, the outcome in series [6] was inactive.
On to `C[C@H](NC(=O)Nc1ccc(C(C)(C)C)cc1)c1ccccc1`, for which the Activity in series [1] is recorded as 0%; in series [2], 0%; in series [3] it was 10%; in series [4] it was 0%; in series [5] it was 0%. The result in series [6] was inactive.
As for `COc1ccc(NC(=O)N[C@@H](C)c2ccccc2)cc1`, the Activity in series [1], in series [2], in series [3], in series [4] and in series [5] was 0% in each case. In series [6], the result was inactive.
Regarding `CCCCc1ccc(NC(=O)N[C@@H](C)c2ccccc2)cc1`, the Activity in series [1] was 0%; in series [2], 0%; in series [3] it was 10%; in series [4], 0%; in series [5] it was 10%. Also, the outcome in series [6] was inactive.
Take `C[C@@H](NC(=O)Nc1cccc(Cl)c1)c1ccccc1`: the Activity in series [1] was 0%; in series [2], 0%; in series [3], 0%; in series [4], 10%; in series [5], 0%. In addition, the result in series [6] was inactive.
Consider `CCCCCCc1ccc(NC(=O)N[C@H](C)c2ccccc2)cc1`, for which the Activity in series [1], in series [2], in series [3], in series [4] and in series [5] was 0% in each case. For the same compound, the result in series [6] was inactive.
Turning to `C[C@H](NC(=O)Nc1cccc(F)c1)c1ccccc1`, the Activity came out at 0% in series [1]; 0% in series [2]; 10% in series [3]; 10% in series [4]; 10% in series [5]. For the same compound, in series [6], the outcome was inactive.
Regarding `CCOC(=O)c1cccc(NC(=O)N[C@@H](C)c2ccccc2)c1`, the Activity in series [1], in series [2], in series [3], in series [4] and in series [5] was 0% each time. Besides, in series [6], the outcome was inactive.
Turning to `C[C@@H](NC(=O)Nc1ccc(Br)cc1)c1ccccc1`, the Activity in series [1], in series [2], in series [3], in series [4] and in series [5] was 0% each time. Moreover, the result in series [6] was inactive.
Take `C[C@@H](NC(=O)Nc1ccc(F)cc1)c1ccccc1`: the Activity in series [1], in series [2], in series [3], in series [4] and in series [5] was 0% in each case. Further, the result in series [6] was inactive.
Regarding `CCCCCCc1ccc(NC(=O)N[C@@H](C)c2ccccc2)cc1`, the Activity in series [1], in series [2], in series [3], in series [4] and in series [5] was 0% each time. The outcome in series [6] was inactive.
Take `CCOC(=O)c1cccc(NC(=O)N[C@H](C)c2ccccc2)c1`: the Activity in series [1], in series [2], in series [3], in series [4] and in series [5] was 0% throughout. Moreover, the outcome in series [6] was inactive.
As to `C[C@H](NC(=O)Nc1cccc(Cl)c1Cl)c1ccccc1`, the Activity in series [1], in series [2], in series [3], in series [4] and in series [5] was 0% each time. In addition, in series [6], the result was inactive.
As for `C[C@H](NC(=O)Nc1cc(C(F)(F)F)cc(C(F)(F)F)c1)c1ccccc1`, the Activity in series [1], in series [2], in series [3], in series [4] and in series [5] was 0% in each case. In series [6], the result was inactive.
On to `C[C@@H](NC(=O)Nc1cccc(F)c1)c1ccccc1`, for which the Activity in series [1] turned out to be 0%; in series [2], 0%; in series [3] it was 0%; in series [4] it was 10%; in series [5], 0%. In addition, in series [6], the outcome was inactive.
In the case of `C[C@H](NC(=O)Nc1cccc(Cl)c1)c1ccccc1`, the Activity came out at 0% in series [1]; 0% in series [2]; 0% in series [3]; 10% in series [4]; 0% in series [5]. Moreover, the outcome in series [6] was inactive.
Consider `CC(=O)c1ccccc1NC(=O)N[C@H](C)c1ccccc1`, for which the Activity in series [1], in series [2], in series [3], in series [4] and in series [5] was 0% in each case. Besides, the outcome in series [6] was inactive.
Consider `C[C@@H](NC(=O)Nc1cccc(Br)c1)c1ccccc1`, for which the Activity in series [1] was determined as 0%; in series [2], 0%; in series [3], 0%; in series [4], 10%; in series [5], 0%. Moreover, in series [6], the result was inactive.
Take `CCOC(=O)c1ccccc1NC(=O)N[C@@H](C)c1ccccc1`: the Activity in series [1] amounted to 0%; in series [2], 0%; in series [3] it was 10%; in series [4], 0%; in series [5], 0%. Moreover, the outcome in series [6] was inactive.
As to `C[C@@H](NC(=O)Nc1ccc(F)cc1F)c1ccccc1`, the Activity in series [1], in series [2], in series [3], in series [4] and in series [5] was 0% throughout. Further, the result in series [6] was inactive.
Take `CC(=O)c1cccc(NC(=O)N[C@@H](C)c2ccccc2)c1`: the Activity in series [1], in series [2], in series [3], in series [4] and in series [5] was 0% throughout. Also, in series [6], the outcome was inactive.
For the compound `CC(=O)c1ccccc1NC(=O)N[C@@H](C)c1ccccc1`, the Activity in series [1], in series [2], in series [3], in series [4] and in series [5] was 0% throughout. For the same compound, the result in series [6] was inactive.
For `C[C@H](NC(=O)Nc1ccc(C(F)(F)F)cc1)c1ccccc1`, the Activity in series [1], in series [2], in series [3], in series [4] and in series [5] was 0% each time. The outcome in series [6] was inactive.
Consider `C[C@@H](NC(=O)Nc1ccc(F)c(F)c1)c1ccccc1`, for which the Activity in series [1], in series [2], in series [3], in series [4] and in series [5] was 0% in each case. In series [6], the result was inactive.
With `C[C@H](NC(=O)Nc1ccccc1Cl)c1ccccc1`, the Activity in series [1] was 0%; in series [2], 0%; in series [3], 0%; in series [4] it was 10%; in series [5], 0%. For the same compound, in series [6], the outcome was inactive.
As for `COc1ccc(NC(=O)N[C@H](C)c2ccccc2)cc1`, the Activity in series [1], in series [2], in series [3], in series [4] and in series [5] was 0% throughout. Besides, the result in series [6] was inactive.
In the case of `Cc1ccc(NC(=O)N[C@@H](C)c2ccccc2)c(F)c1`, the Activity in series [1], in series [2], in series [3], in series [4] and in series [5] was 0% in each case. Besides, the outcome in series [6] was inactive.
